How the values were obtained:
CYP450R enzyme = target: T1, CYP450R enzyme (Homo sapiens, UniProt P16435); assay: Hypoxia-dependent reduction experiment with NADPH and CYP450R; format: biochemical; conditions: in the presence of NADPH and CYP450R enzymes
T1 sequence (P16435 1-677): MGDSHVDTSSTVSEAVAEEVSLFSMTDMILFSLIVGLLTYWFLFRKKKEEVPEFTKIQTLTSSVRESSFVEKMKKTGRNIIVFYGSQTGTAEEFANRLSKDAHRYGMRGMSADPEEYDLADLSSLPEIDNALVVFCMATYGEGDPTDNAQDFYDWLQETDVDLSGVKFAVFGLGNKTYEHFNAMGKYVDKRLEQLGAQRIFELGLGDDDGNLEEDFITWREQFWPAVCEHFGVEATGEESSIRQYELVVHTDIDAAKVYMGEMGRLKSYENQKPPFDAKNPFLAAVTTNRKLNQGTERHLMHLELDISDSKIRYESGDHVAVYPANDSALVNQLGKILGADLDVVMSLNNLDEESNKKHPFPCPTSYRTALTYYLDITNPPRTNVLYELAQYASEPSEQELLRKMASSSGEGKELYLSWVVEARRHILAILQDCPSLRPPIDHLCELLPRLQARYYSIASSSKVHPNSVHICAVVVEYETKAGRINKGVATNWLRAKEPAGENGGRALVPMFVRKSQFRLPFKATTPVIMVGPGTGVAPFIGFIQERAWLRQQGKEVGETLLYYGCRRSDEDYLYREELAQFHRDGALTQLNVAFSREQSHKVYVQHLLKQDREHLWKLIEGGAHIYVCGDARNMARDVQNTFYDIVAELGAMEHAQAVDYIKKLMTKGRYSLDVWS
Experimental: Ingredients were added to each tube without NADPH. Next, 50 μL of the condition B samples were transferred into 100 μL of acetonitrile (T=0). For the samples to be tested under hypoxia condition, the tubes were placed in a hypoxia chamber (BACTRON anaerobic/environmental chamber). The reactions were initiated by adding NADPH to tube A and tube C. Then, the samples with NADPH were placed at 37° C. For the samples to be tested in air condition, the tubes were placed in a hot plate at 37° C. After 30 minutes and 2 hours of incubation, 50 μL of samples were taken from each tube and mixed with 100 μL of acetonitrile. All tubes were spun to remove any protein precipitate and placed in HPLC vials for analysis. The results were compared with the standard curve of the authentic standard. The specific composition of the reagents in each sample reaction tube was shown as follow.
The drugs relative to the initial amount of the test drug (TH-302, compound 01) of the 3 different sample reaction tubes of A/B/C that have been reacted for different times (0/30 min/120 min). The results of adding different concentrations of human NADPH coenzyme were shown in FIG. 3 and FIG. 4, respectively.

[1] = Hepatomicrosome stability, rat; conditions: for Remaining percentage after 30 minutes: Rat, 2 μM
Experimental: 1a) With NADPH: 10 μL of 20 mg/mL of hepatomicrosome and 40 μL of 10 mM of NADPH were added to medium. The final concentrations of hepatomicrosome and NADPH were 0.5 mg/mL and 1 mM, respectively.
1b) Without NADPH: 10 μL of 20 mg/mL hepatomicrosome and 40 μL of ultra-pure H2O were added to medium. The final concentration of hepatomicrosome was 0.5 mg/mL.
3) 3) Aliquots of 50 μL from the reaction solutions at 0 minute and 30 minutes were taken. The reaction solutions were stopped by adding 4 volumes of cold acetonitrile and 4 internal standards (IS internal standard, 100 nM of Alprazolam, 200 nM of caffeine, 200 nM of Labetalol, and 2 μM of Ketoprofen) to stop the reaction solution. The samples were centrifuged at 3,220 g for 40 minutes. Aliquots of 100 μL of the supernatants were mixed with 100 μL of ultra-pure H2O. Then, the mixtures were used for LC-MS/MS analysis. All experiments were performed in duplicate. The test results were as follow.

Compound: O=[N+]([O-])c1ccc(C(OP(=O)(N2CC2)N2CC2)C(F)(F)F)c2ccccc12 (centres unmarked) [Compound 01]
- Reduction ratio compared with TH-302 (CYP450R enzyme): similar
- Hypoxia-dependent reduction (CYP450R enzyme; 37° C.): showed the hypoxia-dependent reduction reaction
- Remaining percentage after 30 minutes ([1]; with NADPH): 71.05%
- Remaining percentage after 30 minutes ([1]; without NADPH): 111.15%
- Stability in hepatomicrosomes (conclusion) ([1]; rat): unstable

— patent US20230026163A1, “ANTICANCER COMPOUND AND MEDICAL USE THEREOF” (ASCENTAWITS PHARMACEUTICALS, LTD., priority 2019, published 2023)
